SMILES strings stand for the structures.

One data set relates to Tbr1+/− mice. The note with it: cited from earlier work; for behavioral defects and autism-like behaviors: refs [49, 50, 51].
A further data set relates to CTTNBP2 M120I mice. The data set can be described thus: Reciprocal social interaction (RSI) test, M120I mutant mice. It counts as in vivo, mouse. As to conditions: for social interaction in RSI, single supplement: CTTNBP2 M120I mice, individually provided: zinc (20 ppm), BCAA (0.225%), serine (0.5%).
A further data set has as its system Shank2−/− mice. As to conditions: previous studies [35-38]; cited from earlier work.
The subject of the next data set is Cttnbp2−/− mice. The experiment in a line: Reciprocal social interaction (RSI) test, Cttnbp2−/− mice. In kind it is in vivo, mouse. The method, then:
(§1) Mouse behaviors were recorded by videotaping from above. […] Aggressive behavior was not assessed. […] The zinc concentrations were normalized by protein amounts. […] The first trial was performed before zinc supplementation. […] Reciprocal social interaction trials were performed as described above. To analyze the effect of D-cycloserine (DCS, ab120121, Abcam) on social behaviors of Cttnbp2 mutant mice, adult mice (˜8 weeks old) were first habituated to handling by subjecting them to an open field with or without inanimate objects. Mice were then isolated until ˜10 weeks old for reciprocal social interaction trials. During isolation, mice were habituated to intraperitoneal injection, which effectively reduces their anxiety response to intraperitoneal injection during the experimental period. On day 1 of the experiment, saline control (0.9% of NaCl) was intraperitoneally injected into the test animal 30 min before a reciprocal social interaction trial, conducted as described above. On day 2 of the experiment, D-cycloserine solution (2 mg/kg in 0.9% of NaCl) was intraperitoneally injected into mice 30 min before a reciprocal social interaction trial.

For the next data set, the system named is CTTNBP2 R533* mice. The data set can be described thus: Reciprocal social interaction (RSI) test, R533* mutant mice. It counts as in vivo, mouse. The procedure: as §1
For data set [1] the following is noted: zinc supplementation in drinking water, experimental period.
For data set [2] the following is noted: Cttnbp2−/− mice; 40 ppm zinc in drinking water for 7 days vs regular water. The method, then: (§2) The concentration of zinc in the mouse chow (5K54, LabDiet) provided in our animal facility is 84 ppm. To increase the zinc intake to ˜150 ppm, mice were provided with ZnSO4 (Z0251, Sigma-Aldrich) in drinking water at a concentration of 40 ppm, which is based on daily consumption of ˜5 ml water and 2.5 g chow by each mouse. To study the expression of synaptic proteins after zinc supplementation, adult mice (˜8 weeks old) were fed with zinc-supplemented water or normal drinking water as control for 7 days and then sacrificed for synaptosomal analysis as described above. To validate the zinc levels in brain, zinc quantification kit (ab102597, Abcam) was used according to manufacturer's instruction. The zinc concentrations were normalized by protein amounts. To study the effect of zinc supplementation on social behavior of Cttnbp2 deletion and mutant mice, three consecutive trials of reciprocal social interaction were performed at intervals of 7 days (FIG. 8C). The first trial was performed before zinc supplementation. After the first trial, mice were provided with zinc-supplemented water (40 ppm) for 7 days and then subjected to the second trial. After the second trial, zinc-supplemented water was replaced with normal drinking water for 7 days and mice then underwent the third trial. Reciprocal social interaction trials were performed as described above.

The test system of a further data set is wild-type mice. As to conditions: 40 ppm zinc in drinking water for 7 days. The procedure:
as §2

The subject of data set [3] is synaptic proteins and glutamate receptors in synaptosomal fractions of Cttnbp2−/− mouse brains. The note with it: 40 ppm zinc in drinking water for 7 days vs regular water. The method, then: One hemisphere of the forebrains from adult mice (˜8-weeks-old) were isolated and homogenized using a tissue dounce homogenizer with a loose pestle in 1 ml sucrose buffer [50 mM Tris-Cl pH 7.4, 320 mM sucrose, 2 mM DTT, 2 μg/ml leupeptin, 2 μg/ml pepstatin-A, 2 μg/ml aproteinin, 2 mM PMSF, 2 μg/ml MG132]. An aliquot of 50 μl of total homogenate was kept. The remainder of the total homogenate was centrifuged twice at 800×g for 10 min at 4° C. The supernatant was centrifuged at 9200×g for 15 min to collect the pellet as a crude synaptosomal fraction. The protein concentrations of total homogenates and synaptosomal fractions were determined by Bradford assay (Bio-Rad Protein Assay Dye Reagent Concentrate, Cat #5000006). Synaptosomal protein samples were then analyzed with LC-MS-MS and immunoblotting.
To validate CTTNBP2 expression in knockout mice, adult mouse brain (˜8 weeks old) samples were homogenized in RIPA buffer. After 30 min, debris was removed by centrifugation (13000 rpm in a microcentrifuge for 20 min). The supernatants were collected and protein amounts were determined by Bio-Rad Protein Assay Dye Reagent Concentrate. Protein samples were denatured by 2× sample buffer and boiled for 10 min. Five μg of protein samples were separated by SDS-PAGE and then transferred to PVDF membrane. Membranes were blocked using blocking buffer [5% skim milk and 0.1% Tween-20 in PBS] for 30 min and hybridized with primary antibodies. In principle, primary antibody was added into blocking buffer and hybridized with the membrane overnight at 4° C. or for 3 hr at room temperature. Horseradish peroxidase-conjugated goat anti-mouse, rabbit, or guinea pig secondary antibodies were used to detect primary antibody and were visualized using a Western Lightening Plus ECL system (PerkinElmer).
as §2

Description for CTTNBP2 M120I mice: Before RSI, mice were individually isolated for at least a week. For the experiment, an unfamiliar adult mouse was put into the home cage of the test mouse for 10 min. The lid of the cage was removed during the entire session. Mouse behaviors were recorded by videotaping from above. The total time a test mouse spent interacting with and gently sniffing the unfamiliar mouse was manually recorded. Aggressive behavior was not assessed.
A supplement or supplement mixture was prepared by mixing a zinc ion source, a serine component and/or BCAAs at various concentrations in drinking water for behavior analyses.
We tested three different ASD mouse models, i.e. Nf1+/−, Tbr1+/−, and Cttnbp2 M120I mice. Before taking supplement, mice were subjected to the first reciprocal social interaction test. After taking supplement for 7 days, mice were analyzed again using reciprocal social interaction to evaluate the effect of nutritional supplementation.

With `Oc1c(I)cc(Cl)c2cccnc12` [clioquinol], the “behavioral defects and autism-like behaviors” value in the data set with Tbr1+/− mice was “ameliorate the behavioral defects and improve autism-like behaviors”.

Consider `N[C@@H](CO)C(=O)O` [serine, L-Serine], for which the “social interaction in RSI, single supplement” value with CTTNBP2 M120I mice is “did not improve”.

Consider `N[C@@H]1CONC1=O` [D-cycloserine, (4R)-4-amino-1,2-oxazolidin-3-one, reference compound], for which the social behaviors entry in the data set on Shank2−/− mice and in the data set with Tbr1+/− mice (previous studies [35-38]) was “improves” throughout. For the same compound, the “social interaction behaviors in RSI test” value with CTTNBP2 M120I mice (M120I mutant mice, 2 mg/kg intraperitoneally 30 min before RSI, vs saline) is “improved”; in the data set on CTTNBP2 R533* mice (R533* mutant mice, 2 mg/kg intraperitoneally 30 min before RSI, vs saline), “improved”. The “social interaction behavior in RSI test” value in the data set with Cttnbp2−/− mice (2 mg/kg intraperitoneally 30 min before RSI, vs saline control) is reported as “increased social interaction behavior”. Besides, the “behavioral defects and autism-like behaviors” value in the data set with Tbr1+/− mice is “ameliorate the behavioral defects and improve autism-like behaviors”.

For `O.O.O.O.O.O.O.O=S(=O)([O-])[O-].[Zn+2]` [zinc, Zinc sulfate heptahydrate], in data set [1], the body weight result was “nor did it alter” and the “volumes of water drunk daily” value is recorded as “nor did it alter”. The “concentration of zinc in brains” value in [2] is given as “increase”. Moreover, the “social behaviors in RSI tests” value with wild-type mice was “did not noticeably influence”. Besides, in data set [3], the “GRIN1 expression level in synaptosomal fractions” value is on record as “increased”, the “GRIN2B expression level in synaptosomal fractions” value was “increased”, the “MOB4 expression level in synaptosomal fractions” value is reported as “increased” and the “RAC3 expression level in synaptosomal fractions” value is “increased”. Besides, in [3], the “SHANK2 expression level in synaptosomal fractions” value is listed as “increased”, the “SHANK3 expression level in synaptosomal fractions” value was “increased”, the “STRN expression level in synaptosomal fractions” value is “increased” and the “cortactin expression level in synaptosomal fractions” value is listed as “increased”. Further, in data set [3], the “levels of GRIA1 in synaptosomal fractions” value was “not noticeably altered”, the “levels of GRIA2 in synaptosomal fractions” value is on record as “not noticeably altered” and the “synaptic levels of DPYSL3” value is reported as “reduced”. Besides, in the data set on CTTNBP2 M120I mice, the “social interaction in RSI, single supplement” value was “did not improve”. In addition, the “social interaction, third RSI test” value in the data set with Cttnbp2−/− mice (7 days after discontinuing zinc supplementation, vs second RSI test) is “reduced”. In addition, the “time interacting with the unfamiliar mouse, second RSI test” value in the data set on Cttnbp2−/− mice (after 40 ppm zinc in drinking water for 7 days, vs first RSI test) is given as “spent significantly longer interacting with the unfamiliar mouse”. In addition, the “social interaction, third RSI test” value in the data set with CTTNBP2 R533* mice (R533* mice, 7 days after discontinuing zinc supplementation, vs second RSI test) is listed as “tended to be lowered, but it was not statistically different from those of the second RSI”. Moreover, the “time interacting with the unfamiliar mouse, second RSI test” value in the data set with CTTNBP2 R533* mice (R533* mice, after 40 ppm zinc in drinking water for 7 days, vs first RSI test) is “spent significantly longer interacting with the unfamiliar mouse”.

The values above are taken from US12059433B2, “Treatment for autistic spectrum disorder (ASD) and relevant symptoms” (ACADEMIA SINICA, priority 2019, dated 2024).
